# Patent US6872690B2, “Herbicidal 2-alkynyl-pyri (mi) dines” (WYETH, priority 2001, dated 2005)
# Experiments:
# Assay type in all cases: in vivo
# [1] = test system: Triticum aestivum; assay: Post-emergence herbicidal activity test; settings: 2-4 weeks after treatment
# Procedure, shortened: (§1)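 Injury is scored on a rating scale 2 to 4 weeks after spraying. Seedlings receive test compound formulated from acetone solutions diluted with water, applied at about 0.025 to 0.4 kg per hectare per pot, and are then grown on greenhouse benches.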
# [2] = test system: Ambrosia artemisifolia; assay: Post-emergence herbicidal activity test; settings: 2-4 weeks after treatment
# Procedure, shortened: as §1
# [3] = test system: Ipomoea hederacea; assay: Post-emergence herbicidal activity test; settings: 2-4 weeks after treatment
# Procedure, shortened: as §1
# [4] = test system: Echinochloa crus-galli; assay: Post-emergence herbicidal activity test; settings: 2-4 weeks after treatment
# Procedure, shortened: as §1
# [5] = test system: Zea mays; assay: Post-emergence herbicidal activity test; settings: 2-4 weeks after treatment
# Procedure, shortened: as §1
# [6] = test system: Matricaria inodora; assay: Post-emergence herbicidal activity test; settings: 2-4 weeks after treatment
# Procedure, shortened: as §1
# [7] = test system: Abutilon theophrasti; assay: Post-emergence herbicidal activity test; settings: 2-4 weeks after treatment
# Procedure, shortened: as §1
# [8] = test system: Alopecurus myosuroides; assay: Post-emergence herbicidal activity test; settings: 2-4 weeks after treatment
# Procedure, shortened: as §1
# [9] = test system: Setaria viridis; assay: Post-emergence herbicidal activity test; settings: 2-4 weeks after treatment
# Procedure, shortened: as §1
# [10] = test system: Glycine max; assay: Post-emergence herbicidal activity test; settings: 2-4 weeks after treatment
# Procedure, shortened: as §1
# [11] = test system: Galium aparine; assay: Pre-emergence test; settings: 0.400 kg/ha, 3 weeks after treatment
# Procedure, shortened: (§2)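 Freshly sown seeds in horticultural loam were sprayed with compound dissolved in acetone with 0.4% w/w alkylphenol/ethylene oxide surfactant, diluted with water, at 0.013, 0.025, 0.100 or 0.400 kg a.i./ha in 900 L/ha. Untreated sown soil served as control; pots were rated 2 to 4 weeks after treatment.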
# [12] = test system: Triticum aestivum; assay: Pre-emergence test; settings: 3 weeks after treatment
# Procedure, shortened: as §2
# [13] = test system: Stellaria media; assay: Pre-emergence test; settings: 0.400 kg/ha, 3 weeks after treatment
# Procedure, shortened: as §2
# [14] = test system: Ambrosia artemisifolia; assay: Pre-emergence test; settings: 3 weeks after treatment
# Procedure, shortened: as §2
# [15] = test system: Ipomoea hederacea; assay: Pre-emergence test; settings: 3 weeks after treatment
# Procedure, shortened: as §2
# [16] = test system: Echinochloa crus-galli; assay: Pre-emergence test; settings: 3 weeks after treatment
# Procedure, shortened: as §2
# [17] = test system: Zea mays; assay: Pre-emergence test; settings: 3 weeks after treatment
# Procedure, shortened: as §2
# [18] = test system: Matricaria inodora; assay: Pre-emergence test; settings: 3 weeks after treatment
# Procedure, shortened: as §2
# [19] = test system: Orysa sativa; assay: Pre-emergence test; settings: 0.400 kg/ha, 3 weeks after treatment
# Procedure, shortened: as §2
# [20] = test system: Lamium purpureum; assay: Pre-emergence test; settings: 0.400 kg/ha, 3 weeks after treatment
# Procedure, shortened: as §2
# [21] = test system: Digitaria sanguinalis; assay: Pre-emergence test; settings: 0.400 kg/ha, 3 weeks after treatment
# Procedure, shortened: as §2
# [22] = test system: Abutilon theophrasti; assay: Pre-emergence test; settings: 3 weeks after treatment
# Procedure, shortened: as §2
# [23] = test system: Alopecurus myosuroides; assay: Pre-emergence test; settings: 3 weeks after treatment
# Procedure, shortened: as §2
# [24] = test system: Setaria viridis; assay: Pre-emergence test; settings: 3 weeks after treatment
# Procedure, shortened: as §2
# [25] = test system: Cassia obtusifolia; assay: Pre-emergence test; settings: 3 weeks after treatment
# Procedure, shortened: as §2
# [26] = test system: Glycine max; assay: Pre-emergence test; settings: 3 weeks after treatment
# Procedure, shortened: as §2
smiles,measurement,setting,value
Cc1cc(C#C[Si](C)(C)C)nc(Oc2cc(C(F)(F)F)nn2C)c1 [Example 14],Post-emergence application TRZWA,[1]; 0.200 kg/ha,1 (1-Trace effect)
same,Post-emergence application AMBEL,[2]; 0.200 kg/ha,3 (3-Moderate effect)
same,Post-emergence application IPOHE,[3]; 0.200 kg/ha,8 (8-Approaching complete kill)
same,Post-emergence application ECHCG,[4]; 0.200 kg/ha,1 (1-Trace effect)
same,Post-emergence application ZEAMX,[5]; 0.200 kg/ha,1 (1-Trace effect)
same,Post-emergence application MATIN,[6]; 0.200 kg/ha,5 (5-Definite injury)
same,Post-emergence application ABUTH,[7]; 0.200 kg/ha,1 (1-Trace effect)
same,Post-emergence application ALOMY,[8]; 0.200 kg/ha,3 (3-Moderate effect)
same,Post-emergence application SETVI,[9]; 0.200 kg/ha,3 (3-Moderate effect)
same,Post-emergence application GLXMA,[10]; 0.200 kg/ha,4 (4-Injury)
same,Assessment (pre-emergence application) GALAP,[11],1 (1-Trace effect)
same,Assessment (pre-emergence application) TRZWA,[12]; 0.400 kg/ha,1 (1-Trace effect)
same,Assessment (pre-emergence application) STEME,[13],9 (9-Complete kill)
same,Assessment (pre-emergence application) MBEL,[14]; 0.400 kg/ha,9 (9-Complete kill)
same,Assessment (pre-emergence application) IPOHE,[15]; 0.400 kg/ha,1 (1-Trace effect)
same,Assessment (pre-emergence application) ECHCG,[16]; 0.400 kg/ha,5 (5-Definite injury)
same,Assessment (pre-emergence application) ZEAMX,[17]; 0.400 kg/ha,1 (1-Trace effect)
same,Assessment (pre-emergence application) MATIN,[18]; 0.400 kg/ha,8 (8-Approaching complete kill)
same,Assessment (pre-emergence application) ORYSA,[19],0 (0-No effect)
same,Assessment (pre-emergence application) LAMPU,[20],9 (9-Complete kill)
same,Assessment (pre-emergence application) DIGSA,[21],9 (9-Complete kill)
same,Assessment (pre-emergence application) ABUTH,[22]; 0.400 kg/ha,0 (0-No effect)
same,Assessment (pre-emergence application) ALOMY,[23]; 0.400 kg/ha,7 (7-Good herbicidal effect)
same,Assessment (pre-emergence application) SETVI,[24]; 0.400 kg/ha,5 (5-Definite injury)
same,Assessment (pre-emergence application) CASOB,[25]; 0.400 kg/ha,3 (3-Moderate effect)
same,Assessment (pre-emergence application) GLXMA,[26]; 0.400 kg/ha,2 (2-Slight effect)
"Cc1cc(C#Cc2ccc(F)cc2)nc(Oc2cc(C(F)(F)F)nn2C)c1 [Example 2, 4-methyl-6-(4-fluorophenylethynyl)-2-(1-methyl-3-trifluoromethylpyrazol-5-yloxy)-pyridine]",Post-emergence application TRZWA,[1]; 0.025 kg/ha,2 (2-Slight effect)
same,Post-emergence application TRZWA,[1]; 0.100 kg/ha,2 (2-Slight effect)
same,Post-emergence application TRZWA,[1]; 0.400 kg/ha,3 (3-Moderate effect)
same,Post-emergence application AMBEL,[2]; 0.025 kg/ha,2 (2-Slight effect)
same,Post-emergence application AMBEL,[2]; 0.100 kg/ha,5 (5-Definite injury)
same,Post-emergence application AMBEL,[2]; 0.400 kg/ha,7 (7-Good herbicidal effect)
same,Post-emergence application IPOHE,[3]; 0.025 kg/ha,7 (7-Good herbicidal effect)
same,Post-emergence application IPOHE,[3]; 0.100 kg/ha,7 (7-Good herbicidal effect)
same,Post-emergence application IPOHE,[3]; 0.400 kg/ha,9 (9-Complete kill)
same,Post-emergence application ECHCG,[4]; 0.025 kg/ha,3 (3-Moderate effect)
same,Post-emergence application ECHCG,[4]; 0.100 kg/ha,4 (4-Injury)
same,Post-emergence application ECHCG,[4]; 0.400 kg/ha,8 (8-Approaching complete kill)
same,Post-emergence application ZEAMX,[5]; 0.025 kg/ha,1 (1-Trace effect)
same,Post-emergence application ZEAMX,[5]; 0.100 kg/ha,2 (2-Slight effect)
same,Post-emergence application ZEAMX,[5]; 0.400 kg/ha,2 (2-Slight effect)
same,Post-emergence application MATIN,[6]; 0.025 kg/ha,2 (2-Slight effect)
same,Post-emergence application MATIN,[6]; 0.100 kg/ha,5 (5-Definite injury)
same,Post-emergence application MATIN,[6]; 0.400 kg/ha,8 (8-Approaching complete kill)
same,Post-emergence application ABUTH,[7]; 0.025 kg/ha,2 (2-Slight effect)
same,Post-emergence application ABUTH,[7]; 0.100 kg/ha,6 (6-Herbicidal effect)
same,Post-emergence application ABUTH,[7]; 0.400 kg/ha,8 (8-Approaching complete kill)
same,Post-emergence application ALOMY,[8]; 0.025 kg/ha,2 (2-Slight effect)
same,Post-emergence application ALOMY,[8]; 0.100 kg/ha,3 (3-Moderate effect)
same,Post-emergence application ALOMY,[8]; 0.400 kg/ha,5 (5-Definite injury)
same,Post-emergence application SETVI,[9]; 0.025 kg/ha,4 (4-Injury)
same,Post-emergence application SETVI,[9]; 0.100 kg/ha,7 (7-Good herbicidal effect)
same,Post-emergence application SETVI,[9]; 0.400 kg/ha,9 (9-Complete kill)
same,Post-emergence application GLXMA,[10]; 0.025 kg/ha,4 (4-Injury)
same,Post-emergence application GLXMA,[10]; 0.100 kg/ha,5 (5-Definite injury)
same,Post-emergence application GLXMA,[10]; 0.400 kg/ha,7 (7-Good herbicidal effect)
same,Assessment (pre-emergence application) TRZWA,[12]; 0.013 kg/ha,0 (0-No effect)
same,Assessment (pre-emergence application) TRZWA,[12]; 0.025 kg/ha,0 (0-No effect)
same,Assessment (pre-emergence application) TRZWA,[12]; 0.100 kg/ha,2 (2-Slight effect)
same,Assessment (pre-emergence application) TRZWA,[12]; 0.400 kg/ha,4 (4-Injury)
same,Assessment (pre-emergence application) MBEL,[14]; 0.013 kg/ha,0 (0-No effect)
same,Assessment (pre-emergence application) MBEL,[14]; 0.025 kg/ha,2 (2-Slight effect)
same,Assessment (pre-emergence application) MBEL,[14]; 0.100 kg/ha,6 (6-Herbicidal effect)
same,Assessment (pre-emergence application) MBEL,[14]; 0.400 kg/ha,9 (9-Complete kill)
same,Assessment (pre-emergence application) IPOHE,[15]; 0.013 kg/ha,0 (0-No effect)
same,Assessment (pre-emergence application) IPOHE,[15]; 0.025 kg/ha,1 (1-Trace effect)
same,Assessment (pre-emergence application) IPOHE,[15]; 0.100 kg/ha,2 (2-Slight effect)
same,Assessment (pre-emergence application) IPOHE,[15]; 0.400 kg/ha,6 (6-Herbicidal effect)
same,Assessment (pre-emergence application) ECHCG,[16]; 0.013 kg/ha,1 (1-Trace effect)
same,Assessment (pre-emergence application) ECHCG,[16]; 0.025 kg/ha,2 (2-Slight effect)
same,Assessment (pre-emergence application) ECHCG,[16]; 0.100 kg/ha,6 (6-Herbicidal effect)
same,Assessment (pre-emergence application) ECHCG,[16]; 0.400 kg/ha,7 (7-Good herbicidal effect)
same,Assessment (pre-emergence application) ZEAMX,[17]; 0.013 kg/ha,0 (0-No effect)
same,Assessment (pre-emergence application) ZEAMX,[17]; 0.025 kg/ha,0 (0-No effect)
same,Assessment (pre-emergence application) ZEAMX,[17]; 0.100 kg/ha,1 (1-Trace effect)
same,Assessment (pre-emergence application) ZEAMX,[17]; 0.400 kg/ha,2 (2-Slight effect)
same,Assessment (pre-emergence application) MATIN,[18]; 0.013 kg/ha,1 (1-Trace effect)
same,Assessment (pre-emergence application) MATIN,[18]; 0.025 kg/ha,5 (5-Definite injury)
same,Assessment (pre-emergence application) MATIN,[18]; 0.100 kg/ha,9 (9-Complete kill)
same,Assessment (pre-emergence application) MATIN,[18]; 0.400 kg/ha,9 (9-Complete kill)
same,Assessment (pre-emergence application) ABUTH,[22]; 0.013 kg/ha,0 (0-No effect)
same,Assessment (pre-emergence application) ABUTH,[22]; 0.025 kg/ha,1 (1-Trace effect)
same,Assessment (pre-emergence application) ABUTH,[22]; 0.100 kg/ha,2 (2-Slight effect)
same,Assessment (pre-emergence application) ABUTH,[22]; 0.400 kg/ha,3 (3-Moderate effect)
same,Assessment (pre-emergence application) ALOMY,[23]; 0.013 kg/ha,1 (1-Trace effect)
same,Assessment (pre-emergence application) ALOMY,[23]; 0.025 kg/ha,2 (2-Slight effect)
same,Assessment (pre-emergence application) ALOMY,[23]; 0.100 kg/ha,5 (5-Definite injury)
same,Assessment (pre-emergence application) ALOMY,[23]; 0.400 kg/ha,8 (8-Approaching complete kill)
same,Assessment (pre-emergence application) SETVI,[24]; 0.013 kg/ha,3 (3-Moderate effect)
same,Assessment (pre-emergence application) SETVI,[24]; 0.025 kg/ha,4 (4-Injury)
same,Assessment (pre-emergence application) SETVI,[24]; 0.100 kg/ha,8 (8-Approaching complete kill)
same,Assessment (pre-emergence application) SETVI,[24]; 0.400 kg/ha,9 (9-Complete kill)
same,Assessment (pre-emergence application) CASOB,[25]; 0.013 kg/ha,0 (0-No effect)
same,Assessment (pre-emergence application) CASOB,[25]; 0.025 kg/ha,1 (1-Trace effect)
same,Assessment (pre-emergence application) CASOB,[25]; 0.100 kg/ha,3 (3-Moderate effect)
same,Assessment (pre-emergence application) CASOB,[25]; 0.400 kg/ha,7 (7-Good herbicidal effect)
same,Assessment (pre-emergence application) GLXMA,[26]; 0.013 kg/ha,0 (0-No effect)
same,Assessment (pre-emergence application) GLXMA,[26]; 0.025 kg/ha,1 (1-Trace effect)
same,Assessment (pre-emergence application) GLXMA,[26]; 0.100 kg/ha,2 (2-Slight effect)
same,Assessment (pre-emergence application) GLXMA,[26]; 0.400 kg/ha,3 (3-Moderate effect)
